Source: US10081667B2, “Composition and method for therapeutic agent delivery during pregnancy” (University of Mississippi Medical Center, priority 2013, dated 2018)
Where no end group is shown, it is not given here.

Legend:
[1] = Pharmacokinetics and biodistribution of SynB1-ELP-p50 versus free p50 peptide in pregnant rats
[2] = system: human umbilical vein endothelial cells (HUVECs); test: HUVEC proliferation, MTS cell proliferation assay; format: cell-based; details: 72 h exposure
Procedure: FIG. 9 is a bar graph showing ELP-VEGF stimulation of HUVEC proliferation. HUVEC cell proliferation was determined after 72 h exposure to ELP, VEGF, or ELP-VEGF at the indicated concentrations using the MTS cell proliferation assay.
Proliferation of human umbilical vein endothelial cells (HUVECs) is stimulated when the cell are exposed to VEGF.

[3] = ELP-VEGF pharmacokinetics and biodistribution in mice after bolus IV; format: in vivo, C57/B16 mice
Procedure: FIG. 12 includes graphs showing ELP-VEGF pharmacokinetics and biodistribution. FIG. 12A. Fluorescently labeled free VEGF or ELP-VEGF were administered by IV injection to C57/B16 mice. Plasma levels were determined by direct fluorescence quantitation and fit to a two-compartment pharmacokinetic model. FIG. 12B. […] FIG. 12D.
In addition to examining the ELP-VEGF activity in vitro, the pharmacokinetics (PK) and biodistribution of ELP-VEGF in comparison to free VEGF121 is also determined. Both free VEGF121 and ELP-VEGF were fluorescently labeled, and their PK and biodistribution were determined in mice after bolus intravenous administration. […] This is consistent with other reports of approximately a 30 minute half-life for recombinant VEGF in humans. ELP-VEGF cleared more slowly than free VEGF121 (FIG. 12A). […] Four hours after the infusion, the biodistribution was determined by ex vivo whole organ fluorescence imaging.

Molecule	initial plasma levels relative to SynB1-ELP-p50 levels ([1]; 100 mg/kg single bolus, pregnant rats)	entry into fetal circulation / pups ([1]; four hours after injection)	total placental levels relative to SynB1-ELP-p50 ([1]; four hours after injection)	stimulation of HUVEC proliferation [2]	terminal plasma half-life ([3]; bolus IV, 2-compartment PK model)	organ accumulation, ex vivo whole organ fluorescence imaging ([3]; four hours after the infusion)
VQRKRQKLMP [p50 peptide]	about 100 fold lower	freely entered the fetal circulation and was visible in the pups	thirty fold lower			
VEGF121: free recombinant vascular endothelial growth factor VEGF121, comparator (protein, synthetic ELP-VEGF sequences, free recombinant vascular endothelial growth factor VEGF121, comparator) MSKGPGVGVPGAGVPGGGVPGAGVPGGGVPGAGVPGGGVPGAGVPGGGVPGAGVPGGGVPGAGVPGGGVPGAGVPGGGVPGAGVPGVGVPGAGVPGGGVPGAGVPGGGVPGAGVPGGGVPGAGVPGGGVPGAGVPGGGVPGAGVPGGGVPGAGVPGGGVPGAGVPGVGVPGAGVPGGGVPGAGVPGGGVPGAGVPGGGVPGAGVPGGGVPGAGVPGGGVPGAGVPGGGVPGAGVPGGGVPGAGVPGVGVPGAGVPGGGVPGAGVPGGGVPGAGVPGGGVPGAGVPGGGVPGAGVPGGGVPGAGVPGGGVPGAGVPGGGVPGAGVPGVGVPGAGVPGGGVPGAGVPGGGVPGAGVPGGGVPGAGVPGGGVPGAGVPGGGVPGAGVPGGGVPGAGVPGGGVPGAGVPGVGVPGAGVPGGGVPGAGVPGGGVPGAGVPGGGVPGAGVPGGGVPGAGVPGGGVPGAGVPGGGVPGAGVPGGGVPGAGVPGVGVPGAGVPGGGVPGAGVPGGGVPGAGVPGGGVPGAGVPGGGVPGAGVPGGGVPGAGVPGGGVPGAGVPGGGVPGAGVPGVGVPGAGVPGGGVPGAGVPGGGVPGAGVPGGGVPGAGVPGGGVPGAGVPGGGVPGAGVPGGGVPGAGVPGGGVPGAGVPGVGVPGAGVPGGGVPGAGVPGGGVPGAGVPGGGVPGAGVPGGGVPGAGVPGGGVPGAGVPGGGVPGAGVPGGGVPGAGVPGVGVPGAGVPGGGVPGAGVPGGGVPGAGVPGGGVPGAGVPGGGVPGAGVPGGGVPGAGVPGGGVPGAGVPGGGVPGAGVPGWPGSGAPMAEGGGQNHHEVVKFMDVYQRSYCHPIETLVDIFQEYPDEIEYIFKPSCVPLMRCGGCCNDEGLECVPTEESNITMQIMRIKPHQGQHIGEMSFLQHNKCECRPKKDRARQEKCDKPRR				stimulated HUVEC proliferation with equal potency	approximately 30 minutes	accumulated most highly in the kidneys and the liver
